Data reported in PMC7587356, “High-Throughput Screening for Inhibitors of the SARS-CoV-2 Protease Using a FRET-Biosensor” (Molecules, 2020).
Where a name gives a salt, the structure may show the parent alone. Read-outs that look alike come from different tables or passages of the source.

Target: SARS-CoV-2 3CLpro (Severe acute respiratory syndrome coronavirus 2, UniProt P0DTD1)
Test: biochemical
Type: biochemical
Design: Replicate_1 / Replicate_2 / mean / mean (LOPAC_screen_w_protease): unit not given here
Conditions: for inhibition at 5 µM: 4 h; for mean (LOPAC screen with protease) / Replicate_1 (LOPAC screen with protease) / Replicate_2 (LOPAC screen with protease): primary screen at 5 µM
[1] = LOPAC1280 primary screen with protease, 5 µM compound, mean of two replicates
[2] = LOPAC1280 primary screen with protease, 5 µM compound, replicate 1
[3] = LOPAC1280 primary screen with protease, 5 µM compound, replicate 2
[4] = sheet LOPAC_screen_w_protease, primary screen with protease, mean of two replicates
[5] = sheet LOPAC_screen_w_protease, primary screen with protease, replicate 1
[6] = sheet LOPAC_screen_w_protease, primary screen with protease, replicate 2
[7] = read-out: Replicate_1 (LOPAC_screen_w_protease)
[8] = read-out: Replicate_2 (LOPAC_screen_w_protease)
[9] = sheet LOPAC_screen_w_protease, LOPAC1280 primary screen at 5 µM, with protease, replicate 1, read-out: Replicate_1
[10] = sheet LOPAC_screen_w_protease, LOPAC1280 primary screen at 5 µM, with protease, replicate 2, read-out: Replicate_2
[11] = LOPAC1280 primary screen with protease, 5 µM compound, replicate 1, read-out: Replicate_1 (LOPAC_screen_w_protease)
[12] = LOPAC1280 primary screen with protease, 5 µM compound, replicate 2, read-out: Replicate_2 (LOPAC_screen_w_protease)
[13] = LOPAC1280 primary screen with protease, 5 µM compound, mean of the two replicates
[14] = sheet LOPAC_screen_w_protease, LOPAC1280 at 5 µM, mean of two replicates
[15] = sheet LOPAC_screen_w_protease, LOPAC1280 at 5 µM, replicate 1
[16] = sheet LOPAC_screen_w_protease, LOPAC1280 at 5 µM, replicate 2
[17] = sheet LOPAC_screen_w_protease, LOPAC1280 primary screen with protease, 5 µM compound, mean of the two replicates
[18] = sheet LOPAC_screen_w_protease, LOPAC1280 primary screen with protease, 5 µM compound, replicate 1
[19] = sheet LOPAC_screen_w_protease, LOPAC1280 primary screen with protease, 5 µM compound, replicate 2
[20] = sheet LOPAC_screen_w_protease, mean of two replicates
[21] = sheet LOPAC_screen_w_protease, replicate 1
[22] = sheet LOPAC_screen_w_protease, replicate 2
[23] = sheet LOPAC_screen_w_protease, primary screen of LOPAC1280 at 5 µM with protease, mean of the two replicates
[24] = sheet LOPAC_screen_w_protease, primary screen of LOPAC1280 at 5 µM with protease, replicate 1
[25] = sheet LOPAC_screen_w_protease, primary screen of LOPAC1280 at 5 µM with protease, replicate 2
[26] = sheet LOPAC_screen_w_protease, LOPAC1280 primary screen at 5 µM, with protease, mean of the two replicates, read-out: mean

Compound CC[C@H](C)[C@H]1O[C@]2(CC[C@@H]1C)C[C@@H]1C[C@@H](C/C=C(\C)[C@@H](O[C@H]3C[C@H](OC)[C@@H](O[C@H]4C[C@H](OC)[C@@H](O)[C@H](C)O4)[C@H](C)O3)[C@@H](C)/C=C/C=C3\CO[C@@H]4[C@H](O)C(C)=C[C@@H](C(=O)O1)[C@]34O)O2 [Ivermectin] has a mean (sheet LOPAC_screen_w_protease, primary screen with protease, compound at 5 µM, mean of two replicates) of 2.889, a Replicate_1 (sheet LOPAC_screen_w_protease, primary screen with protease, compound at 5 µM, replicate 1) of 2.826 and a Replicate_2 (sheet LOPAC_screen_w_protease, primary screen with protease, compound at 5 µM, replicate 2) of 2.952.

With CCCn1c(C)c(C(=O)c2cccc3ccccc23)c2ccccc21 [JWH-015] the “mean (LOPAC_screen_w_protease)” value [1] was 1.386, the “Replicate_1 (LOPAC_screen_w_protease)” value [2] was 1.748 and the “Replicate_2 (LOPAC_screen_w_protease)” value [3] was 1.024.

CCCC(=O)NCCc1c2n(c3ccc(OC)cc13)CCCc1ccccc1-2 [K 185] gave a mean [4] of 2.196, a Replicate_1 [5] of 2.886 and a Replicate_2 [6] of 1.507.

With C=C(C)[C@H]1CN[C@H](C(=O)O)[C@H]1CC(=O)O [Kainic acid] the “mean (LOPAC_screen_w_protease)” value was 1.974, the inhibition at 5 µM [7] was 1.88% and the inhibition at 5 µM [8] was 2.07%.

In the case of CCN1C[C@]2(C)CC[C@H](O)[C@]34C1[C@@H](C[C@H]23)[C@@]1(O)C[C@H](OC)[C@H]2C[C@@H]4[C@@H]1[C@H]2O [Karakoline], the “mean (LOPAC_screen_w_protease)” value is reported as 1.99, the inhibition at 5 µM [7] is reported as 1.52% and the inhibition at 5 µM [8] is reported as 2.46%.

Work on O=C1Cc2c([nH]c3ccc(Br)cc23)-c2ccccc2N1 [Kenpaullone] yielded an inhibition at 5 µM (read-out: Replicate_1) of 1.52%, an inhibition at 5 µM (read-out: Replicate_2) of 3.46% and an inhibition at 5 µM (read-out: mean) of 2.49%.

O=C(c1ccc(F)cc1)C1CCN(CCn2c(=O)[nH]c3ccccc3c2=O)CC1 [Ketanserin tartrate] gave an inhibition at 5 µM (sheet LOPAC_screen_w_protease, LOPAC1280 primary screen at 5 µM, with protease, mean of two replicates, read-out: mean) of -1.02%, an inhibition at 5 µM [9] of 1.01% and an inhibition at 5 µM [10] of -3.04%.

With NC(CO)(CO)CO.O=C(c1ccccc1)c1ccc2n1CCC2C(=O)O (stereo not drawn) [Ketorolac tris salt] the “mean (LOPAC_screen_w_protease)” value [1] was 1.7087, the “Replicate_1 (LOPAC_screen_w_protease)” value [2] was 1.974 and the “Replicate_2 (LOPAC_screen_w_protease)” value [3] was 1.443.

CN1CCC(=C2c3ccccc3CC(=O)c3sccc32)CC1 [Ketotifen fumarate] gave an inhibition at 5 µM (sheet LOPAC_screen_w_protease, primary screen of LOPAC1280 at 5 µM with protease, mean of the two replicates, read-out: mean) of 3.16%, an inhibition at 5 µM (sheet LOPAC_screen_w_protease, primary screen of LOPAC1280 at 5 µM with protease, replicate 1, read-out: Replicate_1) of 4.97% and an inhibition at 5 µM (sheet LOPAC_screen_w_protease, primary screen of LOPAC1280 at 5 µM with protease, replicate 2, read-out: Replicate_2) of 1.34%.

With O=C(O)c1cc(=O)c2ccccc2[nH]1 [Kynurenic acid] the inhibition at 5 µM [11] was 3.13%, the inhibition at 5 µM [12] was 0.793% and the “mean (LOPAC_screen_w_protease)” value [13] was 1.961.

For N[C@@H](CCCC(=O)O)C(=O)O [L-2-aminoadipic acid], the mean [14] was 0.8841, the Replicate_1 [15] was 1.166 and the Replicate_2 [16] was 0.6027.

Work on N[C@@H](Cc1ccc(O)c(O)c1)C(=O)O [L-3,4-Dihydroxyphenylalanine] yielded a mean [17] of 4.21, a Replicate_1 [18] of 5.679 and a Replicate_2 [19] of 2.742.

CCCCOC(=O)NS(=O)(=O)c1sc(CC(C)C)cc1-c1ccc(Cn2c(CC)nc3c(C)cc(C)nc32)cc1 [L-162,313] was tested, and the “mean (LOPAC_screen_w_protease)” value [13] was 1.8394, the “Replicate_1 (LOPAC_screen_w_protease)” value [2] was 2.383 and the “Replicate_2 (LOPAC_screen_w_protease)” value [3] was 1.2958.

With CCCc1c(OCCCOc2ccc(OCC(=O)O)cc2)ccc(C(C)=O)c1O [L-165,041] the “mean (LOPAC screen with protease)” value [20] was 13.6599, the “Replicate_1 (LOPAC screen with protease)” value [21] was 14.4944 and the “Replicate_2 (LOPAC screen with protease)” value [22] was 12.8255.

Cc1ccccc1N1CCN(S(=O)(=O)CC23CCC(CC2NC(=O)C(N)CCS(C)(=O)=O)C3(C)C)CC1.Cl [L-368,899] gave a mean [4] of 2.3895, a Replicate_1 [5] of 2.509 and a Replicate_2 [6] of 2.27.

Cc1c(CC(C)(C)C(=O)O)n(Cc2ccc(Cl)cc2)c2ccc(F)cc12 [L-655,240] was tested, and the “mean (LOPAC_screen_w_protease)” value [1] was 1.677, the “Replicate_1 (LOPAC_screen_w_protease)” value [2] was 2.414 and the “Replicate_2 (LOPAC_screen_w_protease)” value [3] was 0.9392.

CCOC(=O)c1ncn2c1[C@@H]1CCCN1C(=O)c1cc(OC)ccc1-2 [L-655,708] was tested, and the mean [14] was 1.109, the Replicate_1 [15] was 1.0635 and the Replicate_2 [16] was 1.155.

Cl.c1ccc(CN2CCC3(CCCc4ccccc43)CC2)cc1 [L-687,384 hydrochloride] gave a mean (sheet LOPAC_screen_w_protease, LOPAC1280 primary screen at 5 µM, with protease, mean of the two replicates) of 0.6815, a Replicate_1 (sheet LOPAC_screen_w_protease, LOPAC1280 primary screen at 5 µM, with protease, replicate 1) of 0.6204 and a Replicate_2 (sheet LOPAC_screen_w_protease, LOPAC1280 primary screen at 5 µM, with protease, replicate 2) of 0.7425.

Compound O=c1[nH]c2cc(Cl)ccc2c(O)c1-c1cccc(Oc2ccccc2)c1 [L-701,324] has a mean [4] of 2.464, a Replicate_1 [5] of 2.862 and a Replicate_2 [6] of 2.066.

Ic1ccccc1CNC1C2CCN(CC2)C1C(c1ccccc1)c1ccccc1.O=C(O)C(=O)O [L-703,606 oxalate] gave a mean [23] of 3.6584, a Replicate_1 [24] of 4.135 and a Replicate_2 [25] of 3.181.

For CC(=O)N[C@@H](Cc1c[nH]c2ccccc12)C(=O)OCc1cc(C(F)(F)F)cc(C(F)(F)F)c1 [L-732,138], the mean [4] was 2.284, the Replicate_1 [5] was 2.97 and the Replicate_2 [6] was 1.597.

Cl.FC(F)(F)c1cc(CO[C@H]2CCCN[C@H]2c2ccccc2)cc(C(F)(F)F)c1 [L-733,060 hydrochloride] showed a mean [23] of 3.689, a Replicate_1 [24] of 3.241 and a Replicate_2 [25] of 4.136.

OC1(c2ccc(Cl)cc2)CCN(Cc2c[nH]c3ccccc23)CC1 [L-741,626] showed a mean [17] of 4.28, a Replicate_1 [18] of 4.691 and a Replicate_2 [19] of 3.869.

With Cl.Clc1ccc(N2CCN(Cc3c[nH]c4ncccc34)CC2)cc1 [L-745,870 hydrochloride] the “mean (LOPAC_screen_w_protease)” value [1] was 1.375, the “Replicate_1 (LOPAC_screen_w_protease)” value [2] was 2.129 and the “Replicate_2 (LOPAC_screen_w_protease)” value [3] was 0.6216.

Cl.Cl.Cl.Ic1ccc(N2CCN(Cc3c[nH]c4ncccc34)CC2)cc1 [L-750,667 trihydrochloride] was tested, and the mean [17] was 4.601, the Replicate_1 [18] was 3.085 and the Replicate_2 [19] was 6.117.

Compound COc1cc2nc(N3CCN(C(=O)OCc4ccccc4)C(C(=O)NC(C)(C)C)C3)nc(N)c2cc1OC [L-765,314] has a mean [14] of 1.212, a Replicate_1 [15] of 3.331 and a Replicate_2 [16] of -0.9073.

N=C(N)NCCC[C@H](N)C(=O)O [L-Arginine] was tested, and the inhibition at 5 µM [26] was 0.787%, the inhibition at 5 µM [9] was 3.1% and the inhibition at 5 µM [10] was -1.52%.

CCCCS(=N)(=O)CC[C@H](N)C(=O)O (stereo partly drawn) [L-Buthionine-sulfoximine] was tested, and the inhibition at 5 µM [11] was 1.94%, the inhibition at 5 µM [12] was 2.27% and the “mean (LOPAC_screen_w_protease)” value [13] was 2.107.

For NC(N)=NOCC[C@H](N)C(=O)O.O=S(=O)(O)O [L-Canavanine sulfate], the mean [14] was 1.293, the Replicate_1 [15] was 1.623 and the Replicate_2 [16] was 0.9625.

Compound N[C@H]1CON=C1O [L-Cycloserine] has an inhibition at 5 µM (sheet LOPAC_screen_w_protease, primary screen with protease, compound at 5 µM, mean of two replicates, read-out: mean) of 3.14%, an inhibition at 5 µM (sheet LOPAC_screen_w_protease, primary screen with protease, compound at 5 µM, replicate 1, read-out: Replicate_1) of 0.423% and an inhibition at 5 µM (sheet LOPAC_screen_w_protease, primary screen with protease, compound at 5 µM, replicate 2, read-out: Replicate_2) of 5.86%.

N[C@@H](CS(=O)O)C(=O)O [L-Cysteinesulfinic Acid] was tested, and the “mean (LOPAC_screen_w_protease)” value [1] was 1.669, the “Replicate_1 (LOPAC_screen_w_protease)” value [2] was 1.739 and the “Replicate_2 (LOPAC_screen_w_protease)” value [3] was 1.598.

In the case of Cl.N[C@@H](CCC(=O)O)C(=O)O [L-Glutamic acid hydrochloride], the “mean (LOPAC_screen_w_protease)” value [1] is reported as 1.56, the “Replicate_1 (LOPAC_screen_w_protease)” value [2] is reported as 1.529 and the “Replicate_2 (LOPAC_screen_w_protease)” value [3] is reported as 1.59.

For O=C(O)CCC(C(=O)O)N1C(=O)c2ccccc2C1=O [L-Glutamic acid, N-phthaloyl-], the mean [14] was 1.263, the Replicate_1 [15] was 1.846 and the Replicate_2 [16] was 0.6803.

NC(=O)CC[C@H](N)C(=O)O [L-Glutamine] gave an inhibition at 5 µM [26] of 0.871%, an inhibition at 5 µM [9] of 2.13% and an inhibition at 5 µM [10] of -0.384%.

With Cl.N[C@@H](Cc1cnc[nH]1)C(=O)O [L-Histidine hydrochloride] the mean [23] was 3.829, the Replicate_1 [24] was 4.566 and the Replicate_2 [25] was 3.093.

In the case of CC(C)CC(N)CSSCC(N)CC(C)C.Cl.Cl [L-Leucinethiol, oxidized dihydrochloride], the “mean (LOPAC screen with protease)” value [20] is reported as 45.1144, the “Replicate_1 (LOPAC screen with protease)” value [21] is reported as 48.0888 and the “Replicate_2 (LOPAC screen with protease)” value [22] is reported as 42.1401.

For CC(=N)NCCCC[C@H](N)C(=O)O.Cl [L-N6-(1-Iminoethyl)lysine hydrochloride], the mean [4] was 2.233, the Replicate_1 [5] was 3.474 and the Replicate_2 [6] was 0.9911.
